Experimental data as given in patent publication US9669003B2, “Use of flavone and flavanone derivatives in preparation of sedative and hypnotic drugs” (priority 2012, dated 2017).
Marks after values point to notes of the source that are not given here.

What was measured:
Type in all cases: in vivo
Kunming mice [1] = assay: Influence on autonomic activity of normal mice (ZIL-2 mice autonomic activity meter, counts within 10 min); conditions: intragastric, x ± s; for Times of activities in 1 h after drug administration/10 min: 1 h after administration; for Times of activities in 2 h after drug administration/10 min: 2 h after administration; for Times of activities in 24 h after drug administration/10 min: 24 h after administration
Method in brief: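 Kunming mice (10 per group, half each sex) were dosed at 25, 50 or 100 mg/kg in 0.5% CMC-Na. Spontaneous activity counts over 10 min were recorded at 1 h, 2 h and 24 h post-dose. Groups were compared by ANOVA with Dunnett's test after Levene's check.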

Kunming mice [2] = assay: Influence on hypnosis effect with pentobarbital sodium doses at the threshold (50 mg/kg i.p.); conditions: pentobarbital sodium 50 mg/kg i.p. 60 min later, x ± s, n = 10
Method in brief: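 Kunming mice (10/group, half each sex) received compound in 0.5% CMC-Na intragastrically at 25, 50 or 100 mg/kg; 60 min later given 0.3% sodium pentobarbital 50 mg/kg i.p. Sleep latency and duration recorded by loss of righting reflex over 1 min; ANOVA and χ2 for sleep incidence.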

Kunming mice [3] = assay: Influence on hypnosis effect with pentobarbital sodium doses below the threshold (25 mg/kg i.p.); conditions: pentobarbital sodium 25 mg/kg i.p. 60 min later, sleep observed in 30 min, n = 10
Method in brief: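 Kunming mice (10 per group, half female) given single oral doses of 25, 50 or 100 mg/kg in 0.5% CMC-Na; 60 min later pentobarbital sodium 25 mg/kg i.p. Sleep (righting reflex lost >1 min) scored within 30 min as percentage asleep, χ2 test.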

[4] = 25 mg/kg intragastric single dose
[5] = 50 mg/kg intragastric single dose
[6] = 100 mg/kg intragastric single dose
[7] = test drug 25 mg/kg intragastric single dose
[8] = test drug 50 mg/kg intragastric single dose
[9] = test drug 100 mg/kg intragastric single dose

SMILES	Times of activities in 1 h after drug administration/10 min (Kunming mice [1]; 25 mg/kg, n = 10)	Times of activities in 2 h after drug administration/10 min (Kunming mice [1]; 25 mg/kg, n = 10)	Times of activities in 24 h after drug administration/10 min (Kunming mice [1]; 25 mg/kg, n = 10)	Times of activities in 1 h after drug administration/10 min (Kunming mice [1]; 50 mg/kg, n = 10)	Times of activities in 2 h after drug administration/10 min (Kunming mice [1]; 50 mg/kg, n = 10)	Times of activities in 24 h after drug administration/10 min (Kunming mice [1]; 50 mg/kg, n = 10)	Times of activities in 1 h after drug administration/10 min (Kunming mice [1]; 100 mg/kg, n = 10)	Times of activities in 2 h after drug administration/10 min (Kunming mice [1]; 100 mg/kg, n = 10)	duration of sleep (Kunming mice [2]; [4])	time to sleep (Kunming mice [2]; [4])	duration of sleep (Kunming mice [2]; [5])	time to sleep (Kunming mice [2]; [5])	duration of sleep (Kunming mice [2]; [6])	time to sleep (Kunming mice [2]; [6])	Number of sleeping animals (Kunming mice [3]; [7])	rate of sleeping (%) (Kunming mice [3]; [7])	Number of sleeping animals (Kunming mice [3]; [8])	rate of sleeping (%) (Kunming mice [3]; [8])	Number of sleeping animals (Kunming mice [3]; [9])	rate of sleeping (%) (Kunming mice [3]; [9])	also measured
CC=Cc1c(C(=O)O)cc2c(=O)cc(-c3ccc(F)c(C#N)c3)oc2c1C(=O)O [Example 34]	292.2 ± 49.3 /10 min	276.2 ± 43.8 /10 min	313.2 ± 75.4 /10 min	249.4 ± 62.4 /10 min	263.3 ± 59.3 /10 min	334.7 ± 72.3 /10 min	127.8 ± 28.6 /10 min	243.9 ± 40.5 /10 min	37.89 ± 15.21 min	4.39 ± 1.61 min	44.75 ± 21.85 min	3.87 ± 1.42 min	54.77 ± 19.67 min	3.45 ± 1.38 min	2	20%	4	40* %	6	60** %	Times of activities in 24 h after drug administration/10 min (Kunming mice [1]; 100 mg/kg, n = 10): 298.7 ± 81.8 /10 min
COc1ccc(C2CC(=O)c3cc(CCS(=O)(=O)O)c(C4CCNC4)c(N)c3O2)cc1SC#N (stereo not drawn) [Example 55]	232.5 ± 66.1 /10 min	229.8 ± 75.0 /10 min	295.2 ± 89.3 /10 min	138.3 ± 67.6 /10 min	135.6 ± 69.2 /10 min	297.5 ± 81.0 /10 min	110.8 ± 55.7 /10 min	103.8 ± 60.9 /10 min	37.98 ± 13.71 min	4.03 ± 1.97 min	58.53 ± 11.96 min	3.52 ± 2.22 min	65.94 ± 14.95 min	3.21 ± 2.01 min	5	50** %	6	60** %	9	90*** %	Times of activities in 24 h after drug administration/10 min (Kunming mice [1]; 100 mg/kg, n = 10): 289.8 ± 89.7 /10 min
COc1ccc(C2CC(=O)c3c(O)c(OC)c(OC)c(OC)c3O2)cc1OC (stereo not drawn) [Example 64, 5-hydroxyl-6,7,8,3′,4′-penta methoxyl-flavanone]									24.78 ± 24.51 min	5.87 ± 2.32 min	48.23 ± 24.48 min	4.32 ± 1.29 min	53.43 ± 21.81 min	3.87 ± 2.43 min	4	40* %	7	70** %	8	80*** %	Times of activities in 1 h after drug administration/10 min (Kunming mice [1]; 25 mg/kg, n = 10, 25 mg/kg): 323.9 ± 45.4 /10 min; Times of activities in 2 h after drug administration/10 min (Kunming mice [1]; 25 mg/kg, n = 10, 25 mg/kg): 310.9 ± 55.9 /10 min; Times of activities in 24 h after drug administration/10 min (Kunming mice [1]; 25 mg/kg, n = 10, 25 mg/kg): 331.3 ± 94.5 /10 min; Times of activities in 1 h after drug administration/10 min (Kunming mice [1]; 50 mg/kg, n = 10, 50 mg/kg): 283.8 ± 60.4 /10 min; Times of activities in 2 h after drug administration/10 min (Kunming mice [1]; 50 mg/kg, n = 10, 50 mg/kg): 269.7 ± 44.6 /10 min; Times of activities in 24 h after drug administration/10 min (Kunming mice [1]; 50 mg/kg, n = 10, 50 mg/kg): 313.6 ± 93.1 /10 min; Times of activities in 1 h after drug administration/10 min (Kunming mice [1]; 100 mg/kg, n = 10, 100 mg/kg): 239.4 ± 35.6 /10 min; Times of activities in 2 h after drug administration/10 min (Kunming mice [1]; 100 mg/kg, n = 10, 100 mg/kg): 248.2 ± 44.7 /10 min; Times of activities in 24 h after drug administration/10 min (Kunming mice [1]; 100 mg/kg, n = 10, 100 mg/kg): 300.1 ± 81.3 /10 min
COc1cc(C2Oc3c(cc(OC)c(OC)c3OC)C(=O)C2OC)c(O)c(OC)c1OC (stereo not drawn) [Example 69, 6′-hydroxyl-3,6,7,8,3′,4′,5′-hepta methoxyl-flavanone]	322.3 ± 51.3 /10 min	278.3 ± 40.3 /10 min	299.1 ± 80.7 /10 min	298.0 ± 41.5 /10 min	251.7 ± 39.4 /10 min	309.1 ± 91.0 /10 min	289.3 ± 50.7 /10 min	235.8 ± 47.4 /10 min	31.77 ± 22.78 min	4.98 ± 1.88 min	57.73 ± 18.49 min	4.27 ± 1.62 min	64.09 ± 31.23 min	3.87 ± 1.78 min	3	30%	5	50* %	7	70** %	Times of activities in 24 h after drug administration/10 min (Kunming mice [1]; 100 mg/kg, n = 10): 320.4 ± 80.4 /10 min
CC=Cc1cc(I)cc2c1OC(c1cccc(C(=O)O)c1)CC2=O (stereo not drawn) [Example 60]	243.8 ± 73.8 /10 min	238.9 ± 78.3 /10 min	340.4 ± 76.8 /10 min	143.3 ± 64.7 /10 min	131.8 ± 62.3 /10 min	327.6 ± 75.3 /10 min	116.9 ± 33.8 /10 min	109.9 ± 39.2 /10 min	46.64 ± 22.53 min	4.13 ± 1.59 min	58.37 ± 18.85 min	3.62 ± 1.74 min	73.03 ± 19.21 min	2.32 ± 1.17 min	5	50** %	6	60** %	9	90*** %	Times of activities in 24 h after drug administration/10 min (Kunming mice [1]; 100 mg/kg, n = 10): 293.4 ± 84.9 /10 min
COc1ccc(C2CC(=O)c3c(O)c(OC)c(OC)c(OC)c3O2)cc1OC (stereo not drawn) [Example 43, 5-hydroxyl-6,7,8,3′,4′-penta methoxyl-flavanone]									32.33 ± 23.16 min	4.88 ± 1.91 min	59.98 ± 18.43 min	4.19 ± 1.74 min	63.07 ± 33.12 min	3.85 ± 1.76 min	5	50** %	7	70** %	8	80*** %	Times of activities in 1 h after drug administration/10 min (Kunming mice [1]; 25 mg/kg, n = 10, 25 mg/kg): 293.7 ± 41.4 /10 min; Times of activities in 2 h after drug administration/10 min (Kunming mice [1]; 25 mg/kg, n = 10, 25 mg/kg): 306.3 ± 51.6 /10 min; Times of activities in 24 h after drug administration/10 min (Kunming mice [1]; 25 mg/kg, n = 10, 25 mg/kg): 324.7 ± 71.3 /10 min; Times of activities in 1 h after drug administration/10 min (Kunming mice [1]; 50 mg/kg, n = 10, 50 mg/kg): 254.1 ± 42.7 /10 min; Times of activities in 2 h after drug administration/10 min (Kunming mice [1]; 50 mg/kg, n = 10, 50 mg/kg): 252.6 ± 41.6 /10 min; Times of activities in 24 h after drug administration/10 min (Kunming mice [1]; 50 mg/kg, n = 10, 50 mg/kg): 313.7 ± 68.5 /10 min; Times of activities in 1 h after drug administration/10 min (Kunming mice [1]; 100 mg/kg, n = 10, 100 mg/kg): 265.4 ± 49.2 /10 min; Times of activities in 2 h after drug administration/10 min (Kunming mice [1]; 100 mg/kg, n = 10, 100 mg/kg): 258.1 ± 32.7 /10 min; Times of activities in 24 h after drug administration/10 min (Kunming mice [1]; 100 mg/kg, n = 10, 100 mg/kg): 294.1 ± 72.3 /10 min
